# Reference: patent US20190105337A1, “METHODS OF TREATING BACTERIAL INFECTIONS” (priority 2015, published 2019)
# Read-outs that look alike come from different tables or passages of the source.
# Key:
# [1] = Example 6: noncompartmental plasma pharmacokinetics after third dose of the Combination (2 g meropenem/2 g Compound I q8h); conditions: for AUC(0-t) / clearance / Cmax / Tmax / half-life: both, human, plasma, intravenous; for AUC(0-t): AUC0-8, meropenem 2 g q8h; for clearance: CL; for clearance / Cmax / Tmax / Vss: meropenem 2 g q8h; for half-life: t1/2, meropenem 2 g q8h
# Method: (§1) A total of twenty-five (n=25) male and female subjects who met the study entry criteria and completed all phases of the pharmacokinetic study were included in this pharmacokinetic analysis. […] Blood samples were collected to measure drug concentrations in plasma prior to (time 0), and at 1.5, 2.95, 3.083, 3.25, 3.5, 4, 6, and 8 hours after the start of a 3-hour intravenous infusion of the third combination dose.
# (§2) (Reports MC14B-0013, MC14B-0015, MC14I-011, and MC14I-0012). The urea concentrations in plasma and BAL were performed with a microplate-based method with an 0-phthalaldehyde chromogenic solution at MicroConstants, Inc., San Diego, Calif.
# Peak plasma concentration (Cmax) and time to Cmax (Tmax) were read from the observed plasma concentration-time profile after the start of the intravenous infusion of the third Combination dose. Area under the plasma concentration-time curve over 8 hours (AUC0-8) after the third dose was calculated with the linear-log trapezoidal rule (WinNonlin®, version 6.3, Pharsight Corporation, Cary, N.C.). The elimination rate constant (β) was determined by nonlinear least-squares regression. Elimination half-life (t½) was calculated by dividing β into the natural logarithm of two.
# [2] = In vitro hollow fiber model: pharmacokinetic parameters of meropenem and Compound I in the central compartment (Tables E, F)
# Method: In Vitro PK-PD Model: Six medium sized hollow-fiber cartridges (FiberCell Systems) were used per experiment. Three strains studied in duplicate were used for each experiment. Log-phase cells were inoculated and incubated for 2 hours prior to the start of treatment to achieve about 10^8 CFU/mL. Target PK parameters are listed in Tables E and F. The exposures were based on the published literatures disclosed in Example 2. Samples were collected from the central compartment for the determination of drug concentrations over a 32 hour period and were analyzed using an LC-MS/MS method.
# [3] = human, in vivo
# Method: Forty one subjects were enrolled in 5 groups based on their degree of renal insufficiency. The five cohorts included: patients with normal renal function (CrCl≥90 ml/min), mild renal impairment (CrCl 60-89 ml/min), moderate renal impairment (CrCl 30-<60 ml/min), severe renal impairment (CrCl<30 ml/min, and patients with end stage renal disease requiring hemodialysis. Patients on renal replacement therapy other than standard hemodialysis (including continuous veno-venous hemofiltration, continuous veno-venous hemodialysis and continuous renal replacement therapy) were not studied.
# clinical = conditions: both, human, in vivo
# Method: as §1
# Urea has been commonly used as an endogenous marker to estimate the apparent volume of ELF. Blood samples to determine plasma urea concentrations were obtained just prior to scheduled bronchoscopy. Aliquots of BAL were obtained to determine urea concentrations in BAL and cell count with differential. The standardized bronchoscopy with BAL procedure for the collection of intrapulmonary samples has been previously described in the references listed below.
# as §2
# The calculations of ELF volume and drug concentrations in ELF and AM were performed with BAL supernatant and pulmonary (alveolar) cells (“cell pellet”) from aspirates recovered from the 2nd, 3rd, and 4th instillations (BAL2). The concentration of drug (ABXELF) in the epithelial lining fluid (ELF) was determined as follows:
# […]
# VELF is derived from the following:
# where UreaBAL is the concentration of urea in BAL fluid and UreaP is the concentration of urea in plasma.
# The concentration of drug (ABXAM) in the alveolar cells (AC) was determined as follows:
# Differential cell count was performed to determine the number of macrophages present. A mean macrophage cell volume of 2.42 μl/106 cells was used in the calculations for volume of alveolar cells in the pellet suspension.
# The concentration ratios of ELF and AM to the simultaneous plasma concentrations were calculated for each subject and summarized for each group at each sampling time. […] The 8-hour sampling time was also used as a value at time zero for determining the area term of plasma, ELF, and AM. The AUC0-8 for each matrix was determined with the linear trapezoidal method. The ratio of AUC0-8 of ELF to plasma and AM to plasma were calculated.
# Plasma protein binding = type: in vitro ADME
# [4] = combination Compound I/meropenem (Table F)
# [5] = Ratio of ELF to total Plasma concentration
compound,measurement,setting,value
"C[C@@H](O)[C@H]1C(=O)N2C(C(=O)O)=C(S[C@@H]3CN[C@H](C(=O)N(C)C)C3)[C@H](C)[C@H]12 [meropenem, Meropenem]",AUC(0-t),[1]; 1.5-hour BAL Sampling Group,168 ± 41.7 µg·h/mL
same,AUC(0-t),[1]; 3.25-hour BAL Sampling Group,184 ± 29.7 µg·h/mL
same,AUC(0-t),[1]; 4-hour BAL Sampling Group,196 ± 33.5 µg·h/mL
same,AUC(0-t),[1]; 6-hour BAL Sampling Group,197 ± 38.7 µg·h/mL
same,AUC(0-t),[1]; 8-hour BAL Sampling Group,182 ± 28.7 µg·h/mL
same,AUC(0-t),[1]; All Subjects,186 ± 33.6 µg·h/mL
same,clearance,[1]; 1.5-hour BAL Sampling Group,208 mL/min
same,clearance,[1]; 3.25-hour BAL Sampling Group,185 mL/min
same,clearance,[1]; 4-hour BAL Sampling Group,175 mL/min
same,clearance,[1]; 6-hour BAL Sampling Group,173 mL/min
same,clearance,[1]; 8-hour BAL Sampling Group,187 mL/min
same,clearance,[1]; All Subjects,185 mL/min
same,Cmax,[1]; 1.5-hour BAL Sampling Group,56900 ± 19300 ng/mL
same,Cmax,[1]; 3.25-hour BAL Sampling Group,57900 ± 7500 ng/mL
same,Cmax,[1]; 4-hour BAL Sampling Group,59600 ± 7400 ng/mL
same,Cmax,[1]; 6-hour BAL Sampling Group,59400 ± 11500 ng/mL
same,Cmax,[1]; 8-hour BAL Sampling Group,57300 ± 9000 ng/mL
same,Cmax,[1]; All Subjects,58200 ± 10800 ng/mL
same,Tmax,[1]; 1.5-hour BAL Sampling Group,2.95 ± 0.01 h
same,Tmax,[1]; 3.25-hour BAL Sampling Group,3 ± 0.07 h
same,Tmax,[1]; 4-hour BAL Sampling Group,2.98 ± 0.06 h
same,Tmax,[1]; 6-hour BAL Sampling Group,2.98 ± 0.06 h
same,Tmax,[1]; 8-hour BAL Sampling Group,2.98 ± 0.06 h
same,Tmax,[1]; All Subjects,2.98 ± 0.06 h
same,half-life,[1]; 1.5-hour BAL Sampling Group,0.98 ± 0.05 h
same,half-life,[1]; 3.25-hour BAL Sampling Group,1.04 ± 0.13 h
same,half-life,[1]; 4-hour BAL Sampling Group,1.07 ± 0.15 h
same,half-life,[1]; 6-hour BAL Sampling Group,1.12 ± 0.24 h
same,half-life,[1]; 8-hour BAL Sampling Group,0.96 ± 0.13 h
same,half-life,[1]; All Subjects,1.03 ± 0.15 h
same,Vss,[1]; 1.5-hour BAL Sampling Group,17.5 ± 2.5 L
same,Vss,[1]; 3.25-hour BAL Sampling Group,16.7 ± 2.6 L
same,Vss,[1]; 4-hour BAL Sampling Group,15.3 ± 2.1 L
same,Vss,[1]; 6-hour BAL Sampling Group,16.1 ± 3.4 L
same,Vss,[1]; 8-hour BAL Sampling Group,15.6 ± 2.8 L
same,Vss,[1]; All Subjects,16.3 ± 2.6 L
same,"AUC, Average Meropenem Actual",[2]; [4],131.5 µg·h/mL
same,"Cmax, Average Meropenem Actual",[2]; [4],33500 ng/mL
same,"Half-Life, Average Meropenem Actual",[2]; [4],1.4 h
same,"AUC, Average Meropenem Actual",[2]; meropenem alone (Table E),129.0 µg·h/mL
same,"Cmax, Average Meropenem Actual",[2]; meropenem alone (Table E),33900 ng/mL
same,"Half-Life, Average Meropenem Actual",[2]; meropenem alone (Table E),1.3 h
same,non-renal clearance,[3],non-renal clearance assumes a greater proportion of total clearance
same,AUC(0-t),clinical; AUC0-8 based on mean ELF concentrations,112 µg·h/mL
same,AUC(0-t),clinical; AUC0-8 based on median ELF concentrations,102 µg·h/mL
same,concentration at 1.5 h,clinical; Concentration in ELF,21400 ± 4000 ng/mL
same,concentration at 3.25 h,clinical; Concentration in ELF,28300 ± 6700 ng/mL
same,concentration at 4 h,clinical; Concentration in ELF,16100 ± 4800 ng/mL
same,concentration at 6 h,clinical; Concentration in ELF,7520 ± 5290 ng/mL
same,concentration at 8 h,clinical; Concentration in ELF,2510 ± 1130 ng/mL
same,concentration at 1.5 h,clinical; Concentration in Plasma,41200 ± 5000 ng/mL
same,concentration at 3.25 h,clinical; Concentration in Plasma,47700 ± 7300 ng/mL
same,concentration at 4 h,clinical; Concentration in Plasma,23800 ± 4300 ng/mL
same,concentration at 6 h,clinical; Concentration in Plasma,7240 ± 2790 ng/mL
same,concentration at 8 h,clinical; Concentration in Plasma,1360 ± 510 ng/mL
same,Kp at 1.5 h,clinical; [5],0.525 ± 0.107
same,Kp at 3.25 h,clinical; [5],0.59 ± 0.079
same,Kp at 4 h,clinical; [5],0.705 ± 0.302
same,Kp at 6 h,clinical; [5],1.04 ± 0.475
same,Kp at 8 h,clinical; [5],2.13 ± 1.37
same,Kp,clinical; intrapulmonary penetration based on AUC0-8 of ELF and total plasma concentrations,~0.63
same,Kp,"clinical; intrapulmonary penetration, unbound plasma concentrations",0.65
same,Kp,clinical; mean ratios of ELF to simultaneous plasma concentrations (range),0.525 to 2.13
same,Kp,clinical; ratio of ELF to total plasma concentrations based on mean AUC0-8,0.63
same,Kp,clinical; ratio of ELF to total plasma concentrations based on median AUC0-8,0.58
same,Kp,clinical; ratio of ELF to unbound plasma concentrations based on mean AUC0-8,0.65
same,Kp,clinical; ratio of ELF to unbound plasma concentrations based on median AUC0-8,0.59
same,fraction unbound,Plasma protein binding,0.94
same,fraction unbound,Plasma protein binding; human,0.98
